Measurements published in patent US12503451B2, “2-arylthiazole derivative or salt thereof, preparation method therefor, and pharmaceutical composition comprising same” (HEXAPHARMATEC CO., LTD., priority 2020, dated 2025).

Columns and labels:
[1] = system: dimethylnitrosamine (DMN)-induced liver injury male SD rats; test: Liver function-improving activities by oral administration in the liver injury model (1); assay type: in vivo, rat; details: 25 mg/kg oral once a day with DMN
Procedure: The compounds according to the present invention were orally administered to dimethylnitrosamine (DMN)-induced liver injury male SD rats for 3 weeks, so as to evaluate liver function-improving activities. Specifically, 7-week-old male SD rats (Orient Bio, Korea) were accommodated to the laboratory environment at room temperature for 7 days. General symptoms were observed and then only healthy animals were used for the experiment. […] DMN was dissolved in purified water and then administered intraperitoneally at the dose of 10 mg/kg for 3 consecutive days per week (3 times per week, for 4 weeks). […] The collected blood was injected into a vacutainer tube containing a clot activator and then allowed to stand at room temperature for about 20 minutes so as to coagulate each blood sample. After centrifugation for 10 minutes, the resulting serums were subjected to blood-biochemical tests. The results obtained from the measurements were subject to group comparison, through parametric multiple comparisons or non-parametric multiple comparisons, with SPSS. When P<0.05, it was determined to be statistically significant.

[2] = system: dimethylnitrosamine (DMN)-induced liver injury male SD rats; test: Liver function-improving activities by oral administration in the liver injury model (2); assay type: in vivo, rat; details: for Inhibitory activity against liver fibrosis (in words) / Degenerative hepatocyte numbers / Inflammatory cell numbers / Collagen fiber occupied regions: 25 mg/kg oral 4 weeks; for Inhibitory activity against liver fibrosis (in words): histology; for Degenerative hepatocyte numbers / Inflammatory cell numbers: H&E staining of liver; for Degenerative hepatocyte numbers / Inflammatory cell numbers / Collagen fiber occupied regions: autopsy 24 hours after last administration; for Collagen fiber occupied regions: Masson's trichrome staining of liver
Procedure: Specifically, 7-week-old male SD rats (Orient Bio, Korea) were accommodated to the laboratory environment at room temperature for 7 days. General symptoms were observed and then only healthy animals were used for the experiment. The rats were divided into 5 groups (n=10 for each group), i.e., the normal control group, the group to which only DMN is administered, and the group to which both the compound of the present invention (the compound of Example 23, 26, or 29) and DMN are administered. DMN was dissolved in purified water and then administered intraperitoneally at the dose of 10 mg/kg for 3 consecutive days per week (3 times per week, for 4 weeks). Blood samples were collected after the completion of the fourth-week liver injury inducement and then the serum ALT (Alanine Transaminase) values and the serum AST (Aspartate Transaminase) values were measured so as to confirm the liver injury thereof. […] Blood samples were collected on Day 0 (1 day after the completion of the fourth-week liver injury inducement) and Day 7, 14, 21 and 28 after the administration of the test materials. The collected blood was injected into a vacutainer tube containing a clot activator and then allowed to stand at room temperature for about 20 minutes so as to coagulate each blood sample. After centrifugation for 10 minutes, the resulting serums were subjected to blood-biochemical tests. In addition, at 24 hours after the last administration, an autopsy for hepatectomy and fixation was performed to prepare the tissue specimens thereof. After preparing the slides with the tissue specimens, hematoxylin and eosin (H&E) staining was performed thereon for microscopic observation of damages to liver tissue and inflammatory cell infiltrations in liver tissues. In addition, Masson's trichrome staining was also performed thereon for microscopic observation of collagen fiber depositions in liver tissues. The results obtained from the measurements were subject to group comparison, through parametric multiple comparisons or non-parametric multiple comparisons, with SPSS. When P<0.05, it was determined to be statistically significant. […] Therefore, it can be confirmed that the compounds of the present invention have excellent treating activity against liver fibrosis. […] From the results of FIG. 4, the degrees of damage to liver tissue and inflammatory cell infiltration in liver tissues were measured. And also, from the results of FIG. 4, the degree of collagen fiber deposition in liver tissues was measured.

[3] = 0 week (Day 0, before administration)
[4] = 0 week (Day 0, after 4 weeks DMN, before administration)
[5] = 1 week, 25 mg/kg oral once a day after 4 weeks DMN
[6] = 2 weeks, 25 mg/kg oral once a day after 4 weeks DMN
[7] = 3 weeks, 25 mg/kg oral once a day after 4 weeks DMN
[8] = 4 weeks, 25 mg/kg oral once a day after 4 weeks DMN

Compound | ALT values (average value) [1, 3] [U/L] | AST values (average value) [1, 3] [U/L] | ALT values (average value) ([1]; 1 week) [U/L] | AST values (average value) ([1]; 1 week) [U/L] | ALT values (average value) ([1]; 2 weeks) [U/L] | AST values (average value) ([1]; 2 weeks) [U/L] | ALT values (average value) ([1]; 3 weeks) [U/L] | AST values (average value) ([1]; 3 weeks) [U/L] | ALT values (average value) [2, 4] [U/L] | AST values (average value) [2, 4] [U/L] | Inhibitory activity against liver fibrosis (in words) [2] | ALT values (average value) [2, 5] [U/L] | AST values (average value) [2, 5] [U/L] | ALT values (average value) [2, 6] [U/L] | AST values (average value) [2, 6] [U/L] | ALT values (average value) [2, 7] [U/L] | AST values (average value) [2, 7] [U/L] | ALT values (average value) [2, 8] [U/L] | AST values (average value) [2, 8] [U/L] | Degenerative hepatocyte numbers [2] [cells/1000 cells] | also measured
CCN(CC)CCOc1ccc(-c2nc(C)c(C(=O)NCCN(C(C)C)C(C)C)s2)cc1C#N.Cl.Cl [Example 23, N-(2-(diisopropylamino)ethyl)-2-(4-(2-diethylamino)ethoxy-3-cyanophenyl)-4-methylthiazole-5-carboxamide hydrochloride] | 67.64 | 145.10 | 94.40 | 208.56 | 97.64 | 221.58 | 101.04 | 203.44 | 198.30 | 395.34 | excellent inhibitory activity against liver fibrosis | 104.22 | 169.11 | 65.66 | 140.57 | 60.95 | 128.30 | 52.93 | 125.15 | 319.14 ± 44.66 | Inflammatory cell numbers [2]: 101.43 ± 16.53 cells/mm^2; Collagen fiber occupied regions [2]: 12.44 ± 2.03 %/mm^2
Cc1nc(-c2ccc(OCC(C)C)c(C#N)c2)sc1C(=O)NCCN(C(C)C)C(C)C.Cl [Example 2, N-(2-(diisopropylamino)ethyl)-2-(3-cyano-4-isobutoxyphenyl)-4-methylthiazole-5-carboxamide hydrochloride] | 70.76 | 138.50 | 93.68 | 180.72 | 107.06 | 218.90 | 117.02 | 231.54 |  |  |  |  |  |  |  |  |  |  |  |  | 
CCN(CC)CCOc1ccc(-c2nc(C)c(C(=O)NCCN3CCOCC3)s2)cc1C#N.Cl.Cl [Example 26, N-(2-(4-morpholino)ethyl)-2-(4-(2-diethylamino)ethoxy-3-cyanophenyl)-4-methylthiazole-5-carboxamide hydrochloride] |  |  |  |  |  |  |  |  | 199.51 | 322.72 | excellent inhibitory activity against liver fibrosis | 134.97 | 153.48 | 70.09 | 145.71 | 62.81 | 138.76 | 59.12 | 114.45 | 259.14 ± 42.56 | AST value compared with the normal control group (in words) ([2]; 4 weeks after the administration, 25 mg/kg oral): equivalent to that of the normal control group; Inflammatory cell numbers [2]: 90.00 ± 20.67 cells/mm^2; Collagen fiber occupied regions [2]: 10.75 ± 2.17 %/mm^2
